Each compound was assayed on KM12 (assay: Growth inhibition of human KM12 cells assessed as cell growth at 10 uM incubated for 48 hrs by sulforhodamine B assay relative to control). Details: KM12, 48 h, read-out: Activity.
Type: functional
In the case of `COc1cc(Cl)cc(-c2nn(-c3cccc(NC(=O)Nc4ccc(Cl)c(C(F)(F)F)c4)c3)cc2-c2ccncc2)c1`, the growth at 10 µM is reported as 9.1%.

These compounds were tested on SF-295 (assay: Growth inhibition of human SF295 cells assessed as cell growth at 10 uM incubated for 48 hrs by sulforhodamine B assay relative to control). Details: SF-295, 48 h, read-out: Activity.
Type: functional
With `COc1cc(Cl)cc(-c2nn(-c3cccc(NC(=O)Nc4ccc(Cl)c(C(F)(F)F)c4)c3)cc2-c2ccncc2)c1` the growth at 10 µM was -7.48%.

The compounds below were run on SF-268 (assay: Growth inhibition of human SF268 cells assessed as cell growth at 10 uM incubated for 48 hrs by sulforhodamine B assay relative to control). Details: SF-268, 48 h, read-out: Activity.
Type: functional
`COc1cc(Cl)cc(-c2nn(-c3cccc(NC(=O)Nc4ccc(Cl)c(C(F)(F)F)c4)c3)cc2-c2ccncc2)c1` showed a growth at 10 µM of 22.9%.

Each compound was assayed on CCRF-CEM (assay: Growth inhibition of human CCRF-CEM cells assessed as cell growth at 10 uM incubated for 48 hrs by sulforhodamine B assay relative to control). Details: read-out: Activity.
Type: functional
Compound `COc1cc(Cl)cc(-c2nn(-c3cccc(NC(=O)Nc4ccc(Cl)c(C(F)(F)F)c4)c3)cc2-c2ccncc2)c1` has a growth at 10 µM of 1.88%.

These compounds were tested on NCI-H23 (assay: Growth inhibition of human NCI-H23 cells assessed as cell growth at 10 uM incubated for 48 hrs by sulforhodamine B assay relative to control). Details: NCI-H23, 48 h, read-out: Activity.
Type: functional
`COc1cc(Cl)cc(-c2nn(-c3cccc(NC(=O)Nc4ccc(Cl)c(C(F)(F)F)c4)c3)cc2-c2ccncc2)c1` was tested, and the growth at 10 µM was 0.3%.

What follows are compounds tested on HCT-15 (assay: Growth inhibition of human HCT15 cells assessed as cell growth at 10 uM incubated for 48 hrs by sulforhodamine B assay relative to control). Details: HCT-15, 48 h, read-out: Activity.
Type: functional
`COc1cc(Cl)cc(-c2nn(-c3cccc(NC(=O)Nc4ccc(Cl)c(C(F)(F)F)c4)c3)cc2-c2ccncc2)c1` showed a growth at 10 µM of 7.28%.

These compounds were tested on OVCAR-4 (assay: Growth inhibition of human OVCAR4 cells assessed as cell growth at 10 uM incubated for 48 hrs by sulforhodamine B assay relative to control). Details: OVCAR-4, 48 h, read-out: Activity.
Type: functional
`COc1cc(Cl)cc(-c2nn(-c3cccc(NC(=O)Nc4ccc(Cl)c(C(F)(F)F)c4)c3)cc2-c2ccncc2)c1` showed a growth at 10 µM of 16.6%.

What follows are compounds tested on Malme-3M (assay: Growth inhibition of human MALME-3M cells assessed as cell growth at 10 uM incubated for 48 hrs by sulforhodamine B assay relative to control). Details: read-out: Activity.
Type: functional
`COc1cc(Cl)cc(-c2nn(-c3cccc(NC(=O)Nc4ccc(Cl)c(C(F)(F)F)c4)c3)cc2-c2ccncc2)c1` showed a growth at 10 µM of -19.8%.

The compounds below were run on COLO 205 (assay: Growth inhibition of human COLO205 cells assessed as cell growth at 10 uM incubated for 48 hrs by sulforhodamine B assay relative to control). Details: COLO 205, 48 h, read-out: Activity.
Type: functional
Compound `COc1cc(Cl)cc(-c2nn(-c3cccc(NC(=O)Nc4ccc(Cl)c(C(F)(F)F)c4)c3)cc2-c2ccncc2)c1` has a growth at 10 µM of -48.3%.

Each compound was assayed on BT-549 (assay: Growth inhibition of human BT549 cells assessed as cell growth at 10 uM incubated for 48 hrs by sulforhodamine B assay relative to control). Details: BT-549, 48 h, read-out: Activity.
Type: functional
For `COc1cc(Cl)cc(-c2nn(-c3cccc(NC(=O)Nc4ccc(Cl)c(C(F)(F)F)c4)c3)cc2-c2ccncc2)c1`, the growth at 10 µM was 9.81%.

Each compound was assayed on A498 (assay: Growth inhibition of human A498 cells assessed as cell growth at 10 uM incubated for 48 hrs by sulforhodamine B assay relative to control). Details: A498, 48 h, read-out: Activity.
Type: functional
Work on `COc1cc(Cl)cc(-c2nn(-c3cccc(NC(=O)Nc4ccc(Cl)c(C(F)(F)F)c4)c3)cc2-c2ccncc2)c1` yielded a growth at 10 µM of -9.18%.

The compounds below were run on OVCAR-5 (assay: Growth inhibition of human OVCAR5 cells assessed as cell growth at 10 uM incubated for 48 hrs by sulforhodamine B assay relative to control). Details: OVCAR-5, 48 h, read-out: Activity.
Type: functional
In the case of `COc1cc(Cl)cc(-c2nn(-c3cccc(NC(=O)Nc4ccc(Cl)c(C(F)(F)F)c4)c3)cc2-c2ccncc2)c1`, the growth at 10 µM is reported as 19.2%.

What follows are compounds tested on U-251 (assay: Growth inhibition of human U251 cells assessed as cell growth at 10 uM incubated for 48 hrs by sulforhodamine B assay relative to control). Details: U-251, 48 h, read-out: Activity.
Type: functional
With `COc1cc(Cl)cc(-c2nn(-c3cccc(NC(=O)Nc4ccc(Cl)c(C(F)(F)F)c4)c3)cc2-c2ccncc2)c1` the growth at 10 µM was -48.3%.

Each compound was assayed on MDA-MB-231 (assay: Growth inhibition of human MDA-MB-231 cells assessed as cell growth at 10 uM incubated for 48 hrs by sulforhodamine B assay relative to control). Details: MDA-MB-231, 48 h, read-out: Activity.
Type: functional
In the case of `COc1cc(Cl)cc(-c2nn(-c3cccc(NC(=O)Nc4ccc(Cl)c(C(F)(F)F)c4)c3)cc2-c2ccncc2)c1`, the growth at 10 µM is reported as -30.8%.

The compounds below were run on Hs-578T (assay: Growth inhibition of human Hs578T cells assessed as cell growth at 10 uM incubated for 48 hrs by sulforhodamine B assay relative to control). Details: read-out: Activity.
Type: functional
Work on `COc1cc(Cl)cc(-c2nn(-c3cccc(NC(=O)Nc4ccc(Cl)c(C(F)(F)F)c4)c3)cc2-c2ccncc2)c1` yielded a growth at 10 µM of 14.6%.

The compounds below were run on M14 (assay: Growth inhibition of human M14 cells assessed as cell growth at 10 uM incubated for 48 hrs by sulforhodamine B assay relative to control). Details: M14, 48 h, read-out: Activity.
Type: functional
Work on `COc1cc(Cl)cc(-c2nn(-c3cccc(NC(=O)Nc4ccc(Cl)c(C(F)(F)F)c4)c3)cc2-c2ccncc2)c1` yielded a growth at 10 µM of 3.99%.

Each compound was assayed on SK-MEL-5 (assay: Growth inhibition of human SK-MEL-5 cells assessed as cell growth at 10 uM incubated for 48 hrs by sulforhodamine B assay relative to control). Details: SK-MEL-5, 48 h, read-out: Activity.
Type: functional
`COc1cc(Cl)cc(-c2nn(-c3cccc(NC(=O)Nc4ccc(Cl)c(C(F)(F)F)c4)c3)cc2-c2ccncc2)c1` gave a growth at 10 µM of -71.2%.

What follows are compounds tested on SF-539 (assay: Growth inhibition of human SF539 cells assessed as cell growth at 10 uM incubated for 48 hrs by sulforhodamine B assay relative to control). Details: SF-539, 48 h, read-out: Activity.
Type: functional
`COc1cc(Cl)cc(-c2nn(-c3cccc(NC(=O)Nc4ccc(Cl)c(C(F)(F)F)c4)c3)cc2-c2ccncc2)c1` showed a growth at 10 µM of -1.17%.

What follows are compounds tested on MCF7 (assay: Growth inhibition of human MCF7 cells assessed as cell growth at 10 uM incubated for 48 hrs by sulforhodamine B assay relative to control). Details: MCF7, 48 h, read-out: Activity.
Type: functional
For `COc1cc(Cl)cc(-c2nn(-c3cccc(NC(=O)Nc4ccc(Cl)c(C(F)(F)F)c4)c3)cc2-c2ccncc2)c1`, the growth at 10 µM was 2.57%.

These compounds were tested on SW-620 (assay: Growth inhibition of human SW620 cells assessed as cell growth at 10 uM incubated for 48 hrs by sulforhodamine B assay relative to control). Details: SW-620, 48 h, read-out: Activity.
Type: functional
`COc1cc(Cl)cc(-c2nn(-c3cccc(NC(=O)Nc4ccc(Cl)c(C(F)(F)F)c4)c3)cc2-c2ccncc2)c1` was tested, and the growth at 10 µM was 12.7%.

These compounds were tested on OVCAR-8 (assay: Growth inhibition of human OVCAR8 cells assessed as cell growth at 10 uM incubated for 48 hrs by sulforhodamine B assay relative to control). Details: OVCAR-8, 48 h, read-out: Activity.
Type: functional
`COc1cc(Cl)cc(-c2nn(-c3cccc(NC(=O)Nc4ccc(Cl)c(C(F)(F)F)c4)c3)cc2-c2ccncc2)c1` showed a growth at 10 µM of 8.71%.

These compounds were tested on A549 (assay: Growth inhibition of human A549/ATCC cells assessed as cell growth at 10 uM incubated for 48 hrs by sulforhodamine B assay relative to control). Details: A549, 48 h, read-out: Activity.
Type: functional
With `COc1cc(Cl)cc(-c2nn(-c3cccc(NC(=O)Nc4ccc(Cl)c(C(F)(F)F)c4)c3)cc2-c2ccncc2)c1` the growth at 10 µM was 5.2%.

These compounds were tested on T47D (assay: Growth inhibition of human T47D cells assessed as cell growth at 10 uM incubated for 48 hrs by sulforhodamine B assay relative to control). Details: read-out: Activity.
Type: functional
`COc1cc(Cl)cc(-c2nn(-c3cccc(NC(=O)Nc4ccc(Cl)c(C(F)(F)F)c4)c3)cc2-c2ccncc2)c1` showed a growth at 10 µM of 8.1%.

Each compound was assayed on SNB-75 (assay: Growth inhibition of human SNB75 cells assessed as cell growth at 10 uM incubated for 48 hrs by sulforhodamine B assay relative to control). Details: SNB-75, 48 h, read-out: Activity.
Type: functional
In the case of `COc1cc(Cl)cc(-c2nn(-c3cccc(NC(=O)Nc4ccc(Cl)c(C(F)(F)F)c4)c3)cc2-c2ccncc2)c1`, the growth at 10 µM is reported as 14.5%.

Each compound was assayed on K562 (assay: Growth inhibition of human K562 cells assessed as cell growth at 10 uM incubated for 48 hrs by sulforhodamine B assay relative to control). Details: K562, 48 h, read-out: Activity.
Type: functional
For `COc1cc(Cl)cc(-c2nn(-c3cccc(NC(=O)Nc4ccc(Cl)c(C(F)(F)F)c4)c3)cc2-c2ccncc2)c1`, the growth at 10 µM was 8.93%.

Each compound was assayed on HL-60(TB) (assay: Growth inhibition of human HL-60(TB) cells assessed as cell growth at 10 uM incubated for 48 hrs by sulforhodamine B assay relative to control). Details: HL-60, 48 h, read-out: Activity.
Type: functional
`COc1cc(Cl)cc(-c2nn(-c3cccc(NC(=O)Nc4ccc(Cl)c(C(F)(F)F)c4)c3)cc2-c2ccncc2)c1` was tested, and the growth at 10 µM was -9.59%.

What follows are compounds tested on NCI-H322M (assay: Growth inhibition of human NCI-H322M cells assessed as cell growth at 10 uM incubated for 48 hrs by sulforhodamine B assay relative to control). Details: read-out: Activity.
Type: functional
Compound `COc1cc(Cl)cc(-c2nn(-c3cccc(NC(=O)Nc4ccc(Cl)c(C(F)(F)F)c4)c3)cc2-c2ccncc2)c1` has a growth at 10 µM of 18.7%.

These compounds were tested on SK-MEL-28 (assay: Growth inhibition of human SK-MEL-28 cells assessed as cell growth at 10 uM incubated for 48 hrs by sulforhodamine B assay relative to control). Details: SK-MEL-28, 48 h, read-out: Activity.
Type: functional
Compound `COc1cc(Cl)cc(-c2nn(-c3cccc(NC(=O)Nc4ccc(Cl)c(C(F)(F)F)c4)c3)cc2-c2ccncc2)c1` has a growth at 10 µM of 23.6%.

Each compound was assayed on PC-3 (assay: Growth inhibition of human PC3 cells assessed as cell growth at 10 uM incubated for 48 hrs by sulforhodamine B assay relative to control). Details: PC-3, 48 h, read-out: Activity.
Type: functional
For `COc1cc(Cl)cc(-c2nn(-c3cccc(NC(=O)Nc4ccc(Cl)c(C(F)(F)F)c4)c3)cc2-c2ccncc2)c1`, the growth at 10 µM was -13%.

Each compound was assayed on HCC 2998 (assay: Growth inhibition of human HCC2998 cells assessed as cell growth at 10 uM incubated for 48 hrs by sulforhodamine B assay relative to control). Details: HCC 2998, 48 h, read-out: Activity.
Type: functional
`COc1cc(Cl)cc(-c2nn(-c3cccc(NC(=O)Nc4ccc(Cl)c(C(F)(F)F)c4)c3)cc2-c2ccncc2)c1` showed a growth at 10 µM of 18.1%.

What follows are compounds tested on RPMI-8226 (assay: Growth inhibition of human RPMI8226 cells assessed as cell growth at 10 uM incubated for 48 hrs by sulforhodamine B assay relative to control). Details: RPMI-8226, 48 h, read-out: Activity.
Type: functional
For `COc1cc(Cl)cc(-c2nn(-c3cccc(NC(=O)Nc4ccc(Cl)c(C(F)(F)F)c4)c3)cc2-c2ccncc2)c1`, the growth at 10 µM was -29.1%.

The compounds below were run on SNB-19 (assay: Growth inhibition of human SNB19 cells assessed as cell growth at 10 uM incubated for 48 hrs by sulforhodamine B assay relative to control). Details: SNB-19, 48 h, read-out: Activity.
Type: functional
`COc1cc(Cl)cc(-c2nn(-c3cccc(NC(=O)Nc4ccc(Cl)c(C(F)(F)F)c4)c3)cc2-c2ccncc2)c1` showed a growth at 10 µM of 28.1%.

The compounds below were run on SR (assay: Growth inhibition of human SR cells assessed as cell growth at 10 uM incubated for 48 hrs by sulforhodamine B assay relative to control). Details: read-out: Activity.
Type: functional
Compound `COc1cc(Cl)cc(-c2nn(-c3cccc(NC(=O)Nc4ccc(Cl)c(C(F)(F)F)c4)c3)cc2-c2ccncc2)c1` has a growth at 10 µM of -27.5%.

From ChEMBL document CHEMBL4308841, “Synthesis, in vitro antiproliferative activity, and kinase inhibitory effects of pyrazole-containing diarylureas and diarylamides” (Eur J Med Chem, 2018)
